Measurements taken from article PMC10107299, “Neutralizing the Impact of the Virulence Factor LecA from Pseudomonas aeruginosa on Human Cells with New Glycomimetic Inhibitors” (Angewandte Chemie (International Ed. in English), 2023).
“And” between values parts separate entries of the source, which are not always exact repeats. Equal values may be shown once.

How the values were obtained:
[1] = Plasma protein binding (rapid equilibrium device), human plasma; format: in vitro ADME; conditions: both sexes, human, plasma, read-out: PPB Human (converted)
Experimental: mixer (Eppendorf). Acetonitrile and caffeine were dispensed using a Mantis Formulatrix. Then samples were centrifuged for 20 min at 2.270 x g at 4 °C and the supernatants were transferred to 96-well Greiner V-bottom plates. Peak areas of each compound and of the internal standard were analyzed using the MultiQuant 3.0 software (AB Sciex). Peak areas of the respective compound were normalized to the internal standard peak area and to the respective peak areas at time point 0 min: (C/D)/(A/B) with A: peak area of the compound at time point 0 min, B: peak area of the internal standard at time point 0 min, C: peak area of the compound at the respective time point, D: peak area of the internal standard at the respective time point. […]
Assessment of plasma protein binding
Plasma protein binding was assessed using the rapid equilibrium device (RED) system from ThermoFisher. Compounds were dissolved in DMSO. […]
high plasma protein binding. Compounds were diluted in murine plasma (from CD-1 mice, pooled) or in human plasma (human donors, both genders, pooled) to a final concentration of 1 µM. Dialysis buffer and plasma samples were added to the respective chambers according the manufacturer’s protocol. The RED plate was sealed with a tape and incubated at 37 °C for 2 hours at 800 rpm on an Eppendorf MixMate vortex-mixer. Then samples were withdrawn from the respective chambers. To 25 µL of each dialysis sample, 25 µL of plasma and to 25 µL of plasma sample, 25 µL of dialysis buffer was added. Then 150 µL ice-cold extraction solvent (ACN/H2O (90:10) containing 12.5 ng/mL caffeine as internal standard) was added. Samples were incubated for 30 min on ice. Then samples were centrifuged at 4 °C at 2270 x g for 10 min.
Supernatants were transferred to Greiner V-bottom 96-well plates and sealed with a tape. The […]
percentage of bound compound was calculated as follows:
(1) % free = (concentration buffer chamber / concentration plasma chamber) *100 […]
Samples were analyzed using an Agilent 1290 Infinity II HPLC system coupled to an AB Sciex QTrap 6500plus mass spectrometer. LC conditions were as follows: column: Agilent […]
Zorbax Eclipse Plus C18, 50x2.1 mm, 1.8 µm; temperature: 30 °C; injection volume: 5 µL per […]
sample; flow rate: 700 µL/min. Samples were run under acidic and buffered conditions.
Solvents for acidic conditions: A1: water + 0.1% formic acid; solvent B1: 95% acetonitrile/5% […]
H2O + 0.1% formic acid; solvents for buffered conditions: A2: 95% water + 5% acetonitrile + […]
5 mM ammonium acetate + 40 µL/L acetic acid; B2: 95% acetonitrile + 5% water + 5 mM […]
ammonium acetate + 40 µL/L acetic acid. The same gradient was applied for acidic and […]
buffered conditions: 99% A at 0 min, 99% A until 1 min, 99% - 0% A from 1 min to 4.0 min, […]
0% A until 5.0 min. Mass transitions for controls and compounds are depicted in the following […]

LecA = molecular target: T1, LecA (Pseudomonas aeruginosa, UniProt Q05097); assay: Isothermal titration microcalorimetry (ITC) with LecA; format: binding; conditions: for -TΔS (supplement) / ΔS: ITC average ± s.d.; for Relative potency r.p. (ITC): compared to respective monovalent compound in each series; for ΔG, individual titration / ΔH, individual titration: LecA 35-182 µM, ligand 100 µM-1.5 mM as headed
T1 construct: made in house
From the text: Due to the high solubility of the propanamides in the pyridine series and the sulfonated ligand L2, we determined binding thermodynamics with LecA using isothermal titration microcalorimetry (ITC, Figure 3, Figures S5–S9). […] In both cases, the enthalpy of binding increased approximately twofold (I2: ΔH=−23.9±1.2 kcal mol^−1, L2: ΔH=−19.5±1.3 kcal mol^−1) compared to their monovalent analogues (G2: ΔH=−11.0±0.2 kcal mol^−1, K2: ΔH=−10.3±0.1 kcal mol^−1), while the binding entropy was increased approximately threefold (G2: −TΔS=3.8±0.2 kcal mol^−1 vs. I2: −TΔS=13.7±1.3 kcal mol^−1, K2: −TΔS=3.2±0.2 kcal mol^−1 vs. L2: −TΔS=9.4±1.3 kcal mol^−1).
Figure 3 Direct binding of selected ligands to LecA by ITC (N=3). Titration of LecA (50 μM) with divalent sulfonated ligand L2 (250 μM) is depicted. Relative potencies (r.p.) were calculated compared to respective monovalent compound in each series and […]. TEXT PRINTED IN THE PICTURE: G2: ΔG [kcal/mol]: -7.2 ± 0.1; ΔH [kcal/mol]: -11.0 ± 0.2; -TΔS [kcal/mol]: 3.8 ± 0.2; N: 1.07 ± 0.06; Kd [nM]: 5 270 ± 30; r.p.: 1 | I2: ΔG [kcal/mol]: -10.2 ± 0.2; ΔH [kcal/mol]: -23.9 ± 1.2; -TΔS [kcal/mol]: 13.7 ± 1.3; N: 0.43 ± 0.01; Kd [nM]: 35.1 ± 12.5; r.p.: 150 | J2: ΔG [kcal/mol]: -9.7 ± 0.2; ΔH [kcal/mol]: -13.5 ± 0.4; -TΔS [kcal/mol]: 3.8 ± 0.5; N: 0.61 ± 0.06; Kd [nM]: 79.5 ± 32.8; r.p.: 66 | K2: ΔG [kcal/mol]: -7.1 ± 0.1; ΔH [kcal/mol]: -10.3 ± 0.1; -TΔS [kcal/mol]: 3.2 ± 0.2; N: 1.08 ± 0.13; Kd [nM]: 6 230 ± 440; r.p.: 1 | L2: ΔG [kcal/mol]: -10.1 ± 0.1; ΔH [kcal/mol]: -19.5 ± 1.3; -TΔS [kcal/mol]: 9.4 ± 1.3; N: 0.52 ± 0.06; Kd [nM]: 39.9 ± 3.6; r.p.: 156 […]
Expression and purification of LecA as well as competitive binding by fluorescence polarization was performed as described by Joachim et al..[9] The assay was performed in TBS/Ca2+ buffer (20 mM Tris, 137 mM NaCl, 2.6 mM KCl at pH 7.4 supplemented with 1 mM […]
CaCl2) in presence of 25% DMSO. […]
Isothermal titration calorimetry was performed on an iTC200 (Malvern Panalytical) and the data were analyzed using Microcal Origin software (Malvern Panalytical). LecA (50 - 180 […]
K2 and L2 and TBS/Ca2+ buffer supplemented with 5% DMSO for I2 and J2. Steep titration slopes achieved with the divalent ligands were the result of high amount of protein present and the high binding affinity of the ligand (high ‘value of c’).[10] However, LecA protein […]
low heat released upon binding. […]

[2] = ITC average, 25 °C, TBS/Ca2+ buffer (5% DMSO for I2 and J2), N=3
[3] = Kd (ITC), ITC average, 25 °C, TBS/Ca2+ buffer
[4] = Kd, individual titration, single ITC titrations, three per ligand
[5] = single ITC titrations, three per ligand

T1 sequence (Q05097 whole entry): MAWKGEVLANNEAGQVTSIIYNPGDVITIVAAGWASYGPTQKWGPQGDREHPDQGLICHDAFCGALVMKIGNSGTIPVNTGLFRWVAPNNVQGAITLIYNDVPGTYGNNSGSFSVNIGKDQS

| SMILES | fraction unbound at 2 h, 1 µM [1] | -TΔS (supplement) (LecA; 25 °C) [kcal/mol] | ΔS (LecA; 25 °C) [cal/mol/K] | N (stoichiometry) (LecA; ITC average, 25 °C, N=3) | -TΔS (LecA; [2]) [kcal/mol] | ΔG (LecA; [2]) | ΔH (LecA; [2]) [kcal/mol] | Kd (LecA; [3]) [µM] | Kd (LecA; [4]) | Relative potency r.p. (ITC) (LecA) | N, individual titration (LecA; [5]) | ΔS, individual titration (LecA; [5]) | ΔG, individual titration (LecA; [5]) | ΔH, individual titration (LecA; [5]) | Kd (LecA; Kd (ITC), ITC average, 25 °C, TBS/Ca2+ buffer (5% DMSO for I2 and J2), N=3) [µM] |
| --- | --- | --- | --- | --- | --- | --- | --- | --- | --- | --- | --- | --- | --- | --- | --- |
| O=C(/C=C/c1ccc(O[C@@H]2O[C@H](CO)[C@H](O)[C@H](O)[C@H]2O)cc1)Nc1ccc(OCCOc2ccc(NC(=O)/C=C/c3ccc(O[C@@H]4O[C@H](CO)[C@H](O)[C@H](O)[C@H]4O)cc3)cc2)cc1 [Compound D1] | 0.004 | – | – | – | – | – | – | – | – | – | – | – | – | – | – |
| O=C(CCc1ccc(O[C@@H]2O[C@H](CO)[C@H](O)[C@H](O)[C@H]2O)cc1)Nc1ccc(OCCOc2ccc(NC(=O)CCc3ccc(O[C@@H]4O[C@H](CO)[C@H](O)[C@H](O)[C@H]4O)cc3)cc2)cc1 [Compound D2] | 0.005 | – | – | – | – | – | – | – | – | – | – | – | – | – | – |
| COc1ccc(NC(=O)CCc2ccc(O[C@@H]3O[C@H](CO)[C@H](O)[C@H](O)[C@H]3O)cc2)cn1 [Compound G2] | – | 3.8 ± 0.2 | -12.8 ± 0.6 | 1.07 ± 0.06 | 3.8 ± 0.2 | -7.2 ± 0.01 kcal/mol and -7.2 ± 0.1 kcal/mol | -11.0 ± 0.2 | 5.27 ± 0.03 | 5.32 µM and 5.26 µM and 5.24 µM | 1 | 1.10 and 1.13 and 0.99 | -12.5 cal/mol/K and -13.7 cal/mol/K and -12.3 cal/mol/K | -7.2 kcal/mol | -10.9 kcal/mol (2×) and -11.3 kcal/mol | – |
| O=C(CCc1ccc(O[C@@H]2O[C@H](CO)[C@H](O)[C@H](O)[C@H]2O)cc1)Nc1ccc(OCCOc2ccc(NC(=O)CCc3ccc(O[C@@H]4O[C@H](CO)[C@H](O)[C@H](O)[C@H]4O)cc3)cn2)nc1 [Compound H2] | 0.005 | – | – | – | – | – | – | – | – | – | – | – | – | – | – |
| Cc1ccc(NC(=O)CCc2ccc(O[C@@H]3O[C@H](CO)[C@H](O)[C@H](O)[C@H]3O)cc2)cc1S(=O)(=O)O [Compound K2] | – | 3.2 ± 0.2 | -10.7 ± 0.6 | 1.08 ± 0.13 | 3.2 ± 0.2 | -7.1 ± 0.1 kcal/mol | -10.3 ± 0.1 | 6.23 ± 0.44 | 6.33 µM and 5.65 µM and 6.71 µM | 1 | 1.25 and 1.05 and 0.94 | -10.0 cal/mol/K and -11.3 cal/mol/K and -10.7 cal/mol/K | -7.1 kcal/mol (2×) and -7.2 kcal/mol | -10.3 kcal/mol and -10.1 kcal/mol and -10.4 kcal/mol | – |
| O=C(CCc1ccc(O[C@@H]2O[C@H](CO)[C@H](O)[C@H](O)[C@H]2O)cc1)Nc1ccc(CCc2ccc(NC(=O)CCc3ccc(O[C@@H]4O[C@H](CO)[C@H](O)[C@H](O)[C@H]4O)cc3)cc2S(=O)(=O)O)c(S(=O)(=O)O)c1 [Compound L2] | 0.62 | 9.4 ± 1.3 | -31.6 ± 4.4 | 0.52 ± 0.06 | 9.4 ± 1.3 | -10.1 ± 0.1 kcal/mol | -19.5 ± 1.3 | – | 0.0448 µM and 0.038 µM and 0.0368 µM | 156 | 0.56 and 0.55 and 0.44 | -27.5 cal/mol/K and -37.6 cal/mol/K and -29.6 cal/mol/K | -10.0 kcal/mol and -10.1 kcal/mol (2×) | -18.9 kcal/mol and -18.3 kcal/mol and -21.4 kcal/mol | 0.0399 ± 0.0036 |
